According to patent US20090023184A1, “Novel Tachykinin Peptides, Precursor Peptides Thereof And Genes Encoding The Same” (SUNTORY LIMITED, priority 1999, published 2009):

Legend:
rectum of the carp = assay: Measurement of the rectum constricting activity of the carp (isolated intestine, tension recording); format: cell-based; details: added to the chamber with the amount corresponding to one head of Octopus vulgaris; FIGS. 3 and 4
Description: The rectum constricting activity of the carp was performed as follow. That is, the intestine of the carp was excised, and the both ends thereof were fastened with a cotton thread. Then, one end thereof was fixed to a sample chamber (2 ml capacity) and another end was fixed to a transducer to obtain a specimen for the examination. The samples to be measured were dissolved into the physiological saline solution, and added to the sample chamber. The changes of tension of the intestine by constriction were recorded.

ileum of the guinea pig = assay: Measurement of the ileum constricting activity of the guinea pig (isolated ileum, tension recording); format: cell-based; details: concentration of 1×10^−8 M in chamber, 37° C. physiological saline; FIGS. 5 and 6
Description: The ileum constricting activity of the guinea pig was performed in accordance with a method by Champagne et al. (Champagne D. E. et al., Proc. Natl. Acad. Sci. USA., 91, 138-142, 1994).
The ileum of the guinea pig was excised, and the both ends thereof were fastened with a cotton thread. Then, one end thereof was fixed to a sample chamber (5 ml capacity) and another end was fixed to a transducer to obtain a specimen for the examination. The inside of the sample chamber was maintained constantly with 37° C. physiological saline. The samples to be measured were dissolved into the physiological saline solution, and added to the sample chamber. The changes of tension of the ileum by constriction were recorded.

Substance	constricting activity against the rectum of the carp (rectum of the carp)	constricting activity against the ileum of the guinea pig (ileum of the guinea pig)
H-Lys-Pro-Pro-Ser-Ser-Ser-Glu-Phe-Val-Gly-Leu-Met-NH2 (H-KPPSSSEFVGLM-NH2) [Compound (1), tachykinin neuropeptide of Octopus vulgaris posterior salivary gland, isolated from Fraction A and also synthesized]	constricted strongly	constricted strongly
H-Lys-Pro-Pro-Ser-Ser-Ser-Glu-Phe-Ile-Gly-Leu-Met-NH2 (H-KPPSSSEFIGLM-NH2) [Compound (2), tachykinin neuropeptide of Octopus vulgaris posterior salivary gland, isolated from Fraction B and also synthesized]	constricted strongly	constricted strongly
